# Publication PMC12430830, “Discovery of a Novel Cyclopeptide as Tyrosinase Inhibitor for Skin Lightening” (Skin Research and Technology, 2025)
# Values joined by “and” are separate entries in the source; they are usually repeats but may differ in a detail not shown here. Equal entries are not always repeated. Where two headings read alike, the source gives them in different places.
# Columns and labels:
# [1] = test system: tyrosinase; assay: Tyrosinase inhibition assay (intracellular tyrosinase, lysate of treated melanocytes, L‐DOPA); format: cell-based, human; settings: cells treated 24 h, 475 nm, n = 3
# Description: The inhibition of tyrosinase activity was assessed according to the reported method. The 6‐well plates were incubated at 37°C with human melanocyte cells at a density of 2.5×10^5 cells per well in a humidified atmosphere (5% CO2) for 24 h. Subsequently, these cells were exposed to glabridin (0.00625%, V/V) as the positive control, along with other tested compounds. Following treatment, cells were incubated at 37°C for 24 h using identical conditions. After treatment, cells in each well were rinsed with a PBS buffer solution (500 µL) and lysed with a lysate buffer (100 µL containing 0.5% sodium deoxycholate) at approximately 0°C for 1 h. The resulting cell lysate was then centrifuged at 12 000 rpm at 4°C for 20 min. The protein concentration in the supernatant was quantified by a BCA Assay Kit (Beyotime Biotechnology, China). Samples were transferred to a 96‐well plate in a total volume of 100 µL ([…] of lysate supernatant and 20 µL of 0.1% L‐DOPA) and incubated for 60 min at 37°C. The absorbance was measured at 475 nm using a Synergy multimode reader (BioTek Corporation, USA).
# [2] = test system: human melanocyte cells; assay: MTT cytotoxicity / growth inhibition in human melanocytes; format: cell-based; settings: 24 h, n = 3
# Description: (§1) Human melanocytes (Batch number: MC210817; Guangdong Biocell Biotechnology Co. Ltd.) were cultured in DMEM/F12 medium supplemented with 20% FBS (Hyclone) and 100 U/mL penicillin at 37°C with 5% CO2 atmosphere.
# For cytotoxicity, evaluation of peptides on human melanocyte cells was assessed using the standard MTT assay. Cells were seeded in 96‐well plates at a density of 10 000 cells per well and incubated for 12 h under standard culture conditions. […] A negative control group (culture medium containing 10% Dimethyl sulfoxide (DMSO), v/v) was included. Post‐treatment, 0.5 mg/mL MTT reagent was added to each well, followed by 4 h of incubation at 37°C. Formazan crystals formed in viable cells were dissolved in 150 µL DMSO, and absorbance was measured at 490 nm using a Synergy multimode reader (BioTek, USA). Each concentration was tested in triplicate. Statistical significance was determined via one‐way ANOVA (GraphPad Prism 5). All experiments were conducted in triplicate (n = 3).
# [3] = test system: human melanocyte cells; assay: Melanin content in melanocytes; format: cell-based; settings: n = 3
# Description: as §1
# Upon reaching 80%–90% confluence, human melanocyte cells were dissolved with 0.25% trypsin to create a single‐cell suspension. Then, the cells were seeded in 6‐well plates at 200 000 cells per well and cultured for 12 h in a 37°C humidified incubator (5% CO2, V/V). When the confluence of cells reached 40%–60%, they were incubated with specific peptides or the positive control for 24 h. Following the incubation period, the supernatant was removed and the adherent cells were washed with PBS before being dispersed using trypsin (700 µL/well, 0.25%). The dispersed cells were collected and centrifuged at 10 000 rpm for 10 min. The cell pellet from each well was then treated with a mixture of distilled water (200 µL), anhydrous ethanol (500 µL), and ether (500 µL). The mixture was vortexed and allowed to stand at room temperature for 20 min, followed by centrifugation at 3000 rpm for 5 min. The precipitate was dissolved in 1 mL of 1 M NaOH containing 10% DMSO, then incubated at 80°C in a water bath for 40 minutes. After incubation, the solution was transferred to a 96‐well culture plate for optical density measurement at 405 nm. Each analysis was performed in triplicate and results were expressed as mean ± standard deviation (SD).
# [4] = test system: human melanocyte cells; settings: traditional skin‐lightening agent, at similar concentrations; general statement, no reference given; cited from earlier work
compound,measurement,setting,value
Cyclo(Gln‐Gly‐Pro‐Gln‐Gly‐Pro) (head to tail) [CHP‐9],tyrosinase inhibition rate,"[1]; CHP‐9 1%, lysate with 0.1% L‐DOPA 60 min 37°C",28.57%
same,cell viability,[2]; CHP‐9 across effective concentrations,> 90%
same,cytotoxicity,[2]; at tested concentrations (0.0781–10 mg/mL),noncytotoxic to human melanocytes
same,inhibitory effect on melanin production compared with glabridin,[3]; CHP‐9 1% versus glabridin 0.00625% v/v,comparable to glabridin
same,melanin content after treatment,"[3]; CHP‐9 1%, 24 h, OD 405 nm, mean ± SD, untreated control 30.90 ± 1.13 µg/mL",~23.51 µg/mL and 23.51 ± 1.14 µg/mL
NC[C@H]1CC[C@H](C(=O)O)CC1 [tranexamic acid],tyrosinase inhibition rate,"[1]; tranexamic acid 2.5 mg/mL, L‐DOPA 60 min 37°C",10.71%
same,change in cell viability,"[2]; tranexamic acid at higher concentrations (5 and 10 mg/mL), not statistically significant",A slight reduction in cell viability
same,"melanin reduction, single compounds","[3]; tranexamic acid 2.5 mg/mL, nonapeptide‐1 0.3% v/v, 24 h","melanin‐reducing effects, though not as strongly as CHP‐9 alone"
CC1(C)C=Cc2c(ccc3c2OC[C@@H](c2ccc(O)cc2O)C3)O1 [glabridin],tyrosinase inhibition rate,"[1]; glabridin 0.00625% v/v (positive control), L‐DOPA 60 min 37°C",approximately 14%
same,inhibition of melanin production,"[3]; glabridin 0.00625% v/v, 24 h",strong inhibitory effect on melanin production
Oc1ccc(O)cc1 [hydroquinone],cytotoxicity,[4],exhibit cytotoxic effects
